The test system of one assay is CD4+ and CD8+ T cells. The assay is described as follows: T cell proliferation (CTV dye dilution) and T cell counts in SKM-1 killing assay with HLA-A2 WT-1-TCB. The assay is classed as cell-based, human. Here is the method:
FIG. 3. In vitro killing assay set-up and timelines. PBMCs were co-cultured with SKM-1 target cells (E:T=10:1) and 10 nM HLA-A2 WT-1-TCB. Dasatinib (100 nM) was added after 24 hours of activation. PBMCs were labelled with CellTrace™ Violet (CTV) to allow T cell proliferation assessment.
FIG. 6. T cell proliferation. In the assay of FIG. 3, proliferation of CD4+ (A) and CD8+ (B) T cells was measured by FACS 144h after stimulation with HLA-A2 WT-1 TCB by analysis of CTV dye dilution.
FIG. 7. Counts of CD4+ and CD8+ T cells. In the assay of FIG. 3, CD4+ (A) and CD8+(B) T cells counts were measured by FACS, mean of 3 donors+/−SD. paired t test, one tailed p value: 0.1234 (ns), 0.0332 (*), 0.0021 (**), 0.0002 (***), <0.0001 (****).
Furthermore, we assessed T cell proliferation 120 hours after the addition of 100 nM dasatinib in the killing assay by measuring the dilution peaks of the CellTrace™ violet (CTV) dye by flow cytometry.

The test system of assay [1] is IL-2, IFN-γ, TNF-α, IL-6, GM-CSF and IL-8 release. The assay is described as follows: CD19-TCB-induced cytokine release in the SUDLH-8 assay (Luminex). Format: cell-based, human. To be noted: 100 nM dasatinib, monohydrate. On the procedure:
The levels of IL-2 (A), IFN-γ (B), TNF-α (C), IL-6 (D), GM-CSF (E) and IL-8 (F) were measured by Luminex in the supernatant of the assay described in FIG. 26.
FIG. 31. […] The levels of IFN-γ (A), TNF-α (B), IL-2 (C), IL-6 (D), GM-CSF (E) and IL-8 (F) were measured by Luminex in the supernatant of the assay described in FIG. 26.
The killing of CTV labelled SUDLH-8 cells was measured by flow cytometry using a Live/Dead Near Infra Red (NIR) dye. […] The expression of CD69 and CD25 were measured on CD4+ (FIG. 28) and CD8+(FIG. 29) T cells by flow cytometry as a readout for T cell activation. […] Lastly, the cytokine levels were analyzed in the supernatants of the assay by Luminex to evaluate the effect of dasatinib on CD19-TCB-induced cytokine release (FIGS. 30 and 31).

Assay [2] concerns IL-2, TNF-α, IFN-γ and IL-6. Kind of assay: CD19-TCB induced serum cytokine release in humanized NSG mice (Luminex). The assay is classed as in vivo. To be noted: 1.5 and 6 hrs post treatment, 50 mg/kg dasatinib p.o., monohydrate.
Experimental: Humanized NSG mice were co-treated with 0.5 mg/kg CD19-TCB (i.v.) and 50 mg/kg dasatinib (p.o.) twice per day. Blood was collected by tail vein bleeding at 1.5 hrs, 6 hrs and 48 hrs after treatment with CD19-TCB. At 72 hrs, blood was collected retro-orbitally, before the termination of the experiment. N=4 mice per group.
Serum was collected from blood samples collected 1.5 hrs post treatment with CD19-TCB in the experiment described in FIG. 32. The levels of IL-2 (A), TNF-α (B), IFN-γ (C) and IL-6 (D) are measured by Luminex. Mean of n=4 mice+/−SEM. One way ANOVA, Kruskal Wallis test, p-value: 0.1234 (ns), 0.0332 (*), 0.0021 (**), 0.0001 (***), <0.0001 (****).
Serum is collected from blood samples collected 6 hrs post treatment with CD19-TCB in the experiment described in FIG. 32. The levels of IL-2 (A), TNF-α (B), IFN-γ (C) and IL-6 (D) are measured by Luminex. Mean of n=4 mice+/−SEM. One way ANOVA, Kruskal Wallis test, p-value: 0.1234 (ns), 0.0332 (*), 0.0021 (**), 0.0001 (***), <0.0001 (****).
To best mimick the pharmacodynamic profile of dasatinib in the clinic and to verify whether the resulting exposure would be sufficient to prevent CD19-TCB-induced T cell cytotoxicity and cytokine release, dasatinib was given per os twice per day.
Lastly, mice were bled 1.5 and 6 hrs post treatment with CD19-TCB and dasatinib to collect serum for cytokine measurements by Luminex (FIGS. 35 and 36).
The subject of the next assay is MKN45 NLR target cells. The assay is described as follows: Reversibility killing assay with two and three stimulations (OFF/ON, ON/OFF/ON), MKN45 NLR + CEA-TCB, Incucyte. The assay is classed as cell-based, human. On the procedure: FIG. 16. In vitro killing assay set-up and timelines. PBMCs were stimulated on MKN45 NLR (E:T=10:1) target cells with 1 nM CEA-TCB for 96 hours. Activated PBMCs were washed and restimulated on new MKN45 NLR target cells (E:T=10:1) with 1 nM CEA-TCB in the presence of 25 nM dasatinib for 72 hours. Activated PBMCs were washed to remove dasatinib and restimulated on new MKN45 NLR target cells (E:T=10:1) with 1 nM CEA-TCB (“ON/OFF/ON”, see upper row of table), or vice versa (“OFF/ON/OFF”, see lower row of table). Killing was followed by Incucyte®.
FIG. 17. Real time killing of MKN45 NLR target cells by CEA-TCB in the presence of 25 nM dasatinib (0-72 h) upon first stimulation and in the absence of 25 nM dasatinib (96-170 h) upon restimulation, in the assay of FIG. 16 (“OFF/ON”).
FIG. 19. Real time killing of MKN45 NLR target cells by CEA-TCB in the assay of FIG. 16 (“ON/OFF/ON”).
FIG. 21. CEA-TCB mediated target cell killing. (A) PBMCs were stimulated on MKN45 NLR (E:T=10:1) target cells with 1 nM CEA-TCB for 96 hours in the presence and absence of dasatinib. (B) Activated PBMCs were washed to remove dasatinib and restimulated on new MKN45 NLR target cells (E:T=10:1) with 1 nM CEA-TCB. Killing was followed by Incucyte®.
We then verified if dasatinib's effect is reversible upon its removal. Therefore we set-up a killing assay with two and three stimulations in the presence and absence of dasatinib and followed the killing kinetics using an Incucyte® system (FIG. 16). After each stimulation, effector cells were washed and re-stimulated on fresh MKN45 NLR target cells with 1 nM CEA TCB in the presence and absence of dasatinib allowing to mimic OFF/ON switch and ON/OFF/ON switch.
Lastly, we evaluated if the effect of dasatinib was reversible on activated T cells. Consequently, we supplemented the media with 25 nM dasatinib upon the second stimulation with 1 nM CEA-TCB to prevent killing from activated T cells and then removed the dasatinib upon third stimulation with 1 nM CEA-TCB to verify if killing would be restored. […] We concluded that the effect of dasatinib in the prevention of T cell activation and cytotoxicity is reversible.
For T-cell engaging antibodies, cytokine release peaks are higher upon the first treatment than after subsequent treatments. We were curious to see if low doses of dasatinib could prevent cytokine release while minimally affecting TCB-efficacy upon first stimulation. In killing assays as described in FIG. 16, the cytokine levels upon first treatment with 1 nM CEA-TCB in the presence of 6.25 nM and 12.5 nM dasatinib and upon second treatment with 1 nM CEA-TCB in the absence of dasatinib were measured in the supernatants. […] Its removal upon second stimulation may also balance the cytokine release and restore TCB-induced cytotoxicity due to the reversibility properties of dasatinib.

This is an account of results in patent US20220088195A1, “Prevention or mitigation of T-cell bispecific antibody-related adverse effects” (Hoffmann-La Roche Inc., priority 2020, published 2022).

“Also recorded” adds a separate entry of the source.

Regarding `Cc1nc(Nc2ncc(C(=O)Nc3c(C)cccc3Cl)s2)cc(N2CCN(CCO)CC2)n1` [dasatinib, N-(2-chloro-6-methylphenyl)-2-[[6-[4-(2-hydroxyethyl)-1-piperazinyl]-2-methyl-4-pyrimidinyl]amino]-5-thiazole carboxamide monohydrate], the “TCB-induced T cell proliferation (CTV dilution)” value with CD4+ and CD8+ T cells (100 nM dasatinib added at 24 h, 120 hours after addition, 10 nM HLA-A2 WT-1-TCB) is “inhibited TCB-induced T cell proliferation with a stronger impact on CD4+ T cells than CD8+ T cells”. In addition, in the assay with CD4+ and CD8+ T cells (100 nM dasatinib versus positive control without dasatinib), the “CD4+ and CD8+ T cell counts” value is “significantly higher in positive control samples which were not treated with 100 nM dasatinib, than in samples treated with 100 nM dasatinib”. Besides, in assay [1], the “release of IL-2, IFN-γ, TNF-α, IL-6, GM-CSF and IL-8” value was “prevents CD19-TCB-induced cytokine release; also recorded: prevented the release”. The “CD19-TCB-induced serum IL-2, TNF-α, IFN-γ and IL-6” value in assay [2] (listed as Dasatinib) is given as “prevents CD19-TCB induced cytokine release in vivo”; in assay [2], “inhibited”. For the same molecule, the “killing induced by 1 nM CEA-TCB during first stimulation” value with MKN45 NLR target cells (6.25 nM and 12.5 nM dasatinib) is “only partially inhibited the killing”. In addition, the “killing of MKN45 NLR target cells (OFF/ON)” value in the assay on MKN45 NLR target cells (25 nM dasatinib during first stimulation, removed for second, 1 nM CEA TCB) is reported as “killing inhibition which was then reversed upon dasatinib removal”. The “killing of MKN45 cells (ON/OFF/ON)” value with MKN45 NLR target cells (25 nM dasatinib upon second stimulation, removed upon third, 1 nM CEA-TCB) was “inhibited with the addition of 25 nM upon second stimulation and restored upon third stimulation”. Besides, the “killing upon removal of dasatinib during second stimulation” value in the assay on MKN45 NLR target cells (after 6.25 nM and 12.5 nM dasatinib in first stimulation) was “killing was restored”.
